The results in this text go back to US9663508B2, “Biaryl acyl-sulfonamide compounds as sodium channel inhibitors” (AMGEN INC., priority 2013, dated 2017).

In the experiment the target is human Nav1.7 (Homo sapiens (Human), UniProt Q15858). Put plainly: Nav 1.7 in vitro PatchXpress (PX) assay. Format: cell-based.

Where two headings read alike, the source gives them in different places.

human Nav1.7, sequence (Q15858 whole entry): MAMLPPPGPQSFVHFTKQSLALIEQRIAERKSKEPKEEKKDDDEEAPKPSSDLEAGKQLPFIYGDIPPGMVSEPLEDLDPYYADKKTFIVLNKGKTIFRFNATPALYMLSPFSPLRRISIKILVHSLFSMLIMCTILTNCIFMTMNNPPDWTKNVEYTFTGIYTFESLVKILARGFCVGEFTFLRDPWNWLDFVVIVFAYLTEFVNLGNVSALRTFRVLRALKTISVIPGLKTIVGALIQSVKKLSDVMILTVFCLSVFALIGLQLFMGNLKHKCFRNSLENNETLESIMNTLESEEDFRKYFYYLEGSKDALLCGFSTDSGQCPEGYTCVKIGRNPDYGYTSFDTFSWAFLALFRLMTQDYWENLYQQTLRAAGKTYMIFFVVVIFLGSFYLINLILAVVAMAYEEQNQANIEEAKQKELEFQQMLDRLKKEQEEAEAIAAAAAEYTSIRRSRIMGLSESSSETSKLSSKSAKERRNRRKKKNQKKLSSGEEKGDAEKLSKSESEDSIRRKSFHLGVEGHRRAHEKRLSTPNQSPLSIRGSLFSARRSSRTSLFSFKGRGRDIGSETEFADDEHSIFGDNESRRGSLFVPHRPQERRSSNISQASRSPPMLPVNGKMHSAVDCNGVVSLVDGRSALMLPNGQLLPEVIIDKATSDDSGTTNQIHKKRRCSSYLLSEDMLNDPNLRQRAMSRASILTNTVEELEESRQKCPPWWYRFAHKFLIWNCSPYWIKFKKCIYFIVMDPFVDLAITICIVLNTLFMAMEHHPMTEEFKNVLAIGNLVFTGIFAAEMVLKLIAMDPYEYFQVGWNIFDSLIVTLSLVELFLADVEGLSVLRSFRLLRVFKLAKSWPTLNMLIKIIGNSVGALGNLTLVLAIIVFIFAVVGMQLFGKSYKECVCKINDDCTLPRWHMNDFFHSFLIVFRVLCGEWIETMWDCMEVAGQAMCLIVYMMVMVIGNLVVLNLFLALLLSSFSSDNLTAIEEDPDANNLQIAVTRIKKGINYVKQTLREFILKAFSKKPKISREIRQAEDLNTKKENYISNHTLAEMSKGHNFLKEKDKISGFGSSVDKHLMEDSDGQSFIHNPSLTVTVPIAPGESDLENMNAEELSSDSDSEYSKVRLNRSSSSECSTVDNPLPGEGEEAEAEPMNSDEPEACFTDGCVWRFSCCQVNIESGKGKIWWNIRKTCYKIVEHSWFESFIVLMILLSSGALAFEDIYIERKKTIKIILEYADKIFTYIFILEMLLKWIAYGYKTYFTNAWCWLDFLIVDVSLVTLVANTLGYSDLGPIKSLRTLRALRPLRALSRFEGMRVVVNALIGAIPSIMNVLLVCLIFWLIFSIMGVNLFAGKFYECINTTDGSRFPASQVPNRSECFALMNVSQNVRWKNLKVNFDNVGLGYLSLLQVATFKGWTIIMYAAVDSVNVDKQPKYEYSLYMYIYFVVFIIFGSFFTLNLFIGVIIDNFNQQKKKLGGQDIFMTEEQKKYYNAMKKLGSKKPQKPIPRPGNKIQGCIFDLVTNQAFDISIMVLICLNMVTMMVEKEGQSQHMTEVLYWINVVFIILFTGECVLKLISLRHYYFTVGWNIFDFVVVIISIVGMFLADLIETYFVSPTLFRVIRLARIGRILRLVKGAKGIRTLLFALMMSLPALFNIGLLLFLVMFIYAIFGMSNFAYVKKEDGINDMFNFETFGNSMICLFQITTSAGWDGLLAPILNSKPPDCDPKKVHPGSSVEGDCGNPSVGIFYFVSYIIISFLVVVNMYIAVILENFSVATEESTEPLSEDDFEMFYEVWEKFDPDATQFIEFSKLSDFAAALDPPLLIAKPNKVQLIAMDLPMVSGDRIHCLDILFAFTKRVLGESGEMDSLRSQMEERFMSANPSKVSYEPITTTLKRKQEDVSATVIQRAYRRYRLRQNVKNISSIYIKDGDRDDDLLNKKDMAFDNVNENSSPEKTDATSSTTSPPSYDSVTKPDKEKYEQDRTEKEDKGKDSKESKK

Regarding `COc1ncc(Oc2ncc(-c3ccc(C(=O)NS(C)(=O)=O)cc3OC3COC3)cc2Cl)cc1Cl` [Example 412, 4-(5-chloro-6-((5-chloro-6-methoxy-3-pyridinyl)oxy)-3-pyridinyl)-N-(methylsulfonyl)-3-(3-oxetanyloxy)benzamide], the IC50 (in general, the point on the concentration scale where inhibition reaches its midpoint) amounted to 98.9 nM. This lies in the double-digit nanomolar range.
The molecule `COc1cc(C(=O)NS(C)(=O)=O)c(F)cc1-c1cnc(Oc2cc(F)cc(F)c2)c(Cl)c1` [Example 740, 4-(5-chloro-6-(3,5-difluorophenoxy)-3-pyridinyl)-2-fluoro-5-methoxy-N-(methylsulfonyl)benzamide] displayed an IC50 (in-vitro Nav 1.7 PX data) of 87 nM.
Still for that read-out and setting: the same measure for `Cc1cc(Cl)cc(Cl)c1Oc1ncc(-c2ccc(C(=O)NS(C)(=O)=O)cc2Br)cc1Cl` [Example 794, 3-bromo-4-(5-chloro-6-(2,4-dichloro-6-methylphenoxy)-3-pyridinyl)-N-(methylsulfonyl)benzamide]: 27.5 nM.
`CC1(Oc2ncc(-c3cc(F)c(C(=O)NS(C)(=O)=O)cc3Cl)cc2Cl)CCC1` [Example 602, 5-chloro-4-(5-chloro-6-((1-methylcyclobutyl)oxy)-3-pyridinyl)-2-fluoro-N-(methylsulfonyl)benzamide] came in with an IC50 of 100 nM.
The molecule `CCS(=O)(=O)NC(=O)c1ccc(-c2cnc(Oc3cccc(Cl)c3C)c(Cl)c2)c(OC)c1` [Example 789, 4-(5-chloro-6-(3-chloro-2-methylphenoxy)-3-pyridinyl)-N-(ethylsulfonyl)-3-methoxybenzamide] yielded a 50% inhibitory concentration (IC50) (in-vitro Nav 1.7 PX data) of 66.9 nM.
Still for that read-out and setting: to `CC[C@H](Oc1ncc(-c2cc(F)c(C(=O)NS(C)(=O)=O)cc2OC)cc1Cl)C(F)(F)F` [Example 768, 4-(5-chloro-6-(((1S)-1-(trifluoromethyl)propyl)oxy)-3-pyridinyl)-2-fluoro-5-methoxy-N-(methylsulfonyl)benzamide] belongs 95.5 nM.
For the molecule `Cc1cc(C(=O)NS(C)(=O)=O)c(F)cc1-c1cnc(Oc2ccc(OC(C)C)cc2)c(Cl)c1` [Example 663, 4-(5-chloro-6-(4-(1-methylethoxy)phenoxy)-3-pyridinyl)-2-fluoro-5-methyl-N-(methylsulfonyl)benzamide], the IC50 came out at 108 nM.
Under “in-vitro Nav 1.7 PX data”, `COc1cc(C(=O)NS(C)(=O)=O)c(F)cc1-c1cnc(Oc2c(F)ccc(F)c2F)c(Cl)c1` [Example 766, 4-(5-chloro-6-(2,3,6-trifluorophenoxy)-3-pyridinyl)-2-fluoro-5-methoxy-N-(methylsulfonyl)benzamide] showed an IC50 of 96.3 nM.
On the same count and under the same terms, to `COc1cc(C(=O)NS(C)(=O)=O)c(F)cc1-c1cnc(Oc2cc(F)c(Cl)c(F)c2)c(Cl)c1` [Example 763, 4-(5-chloro-6-(4-chloro-3,5-difluorophenoxy)-3-pyridinyl)-2-fluoro-5-methoxy-N-(methylsulfonyl)benzamide] belongs 47.1 nM.
Turning to `COc1cc(C(=O)NS(C)(=O)=O)ccc1-c1cnc(Oc2c(F)ccc(F)c2F)c(Cl)c1` [Example 362, 4-(5-chloro-6-(2,3,6-trifluorophenoxy)-3-pyridinyl)-3-methoxy-N-(methylsulfonyl)benzamide], the IC50 amounted to 63.6 nM.
With `COc1cc(C(=O)NS(C)(=O)=O)c(F)cc1-c1cnc(NC2CCC(C)(C)CC2)c(Cl)c1` [Example 724, 4-(5-chloro-6-((4,4-dimethylcyclohexyl)amino)-3-pyridinyl)-2-fluoro-5-methoxy-N-(methylsulfonyl)benzamide], the IC50 (in-vitro Nav 1.7 PX data) amounted to 106 nM. This counts as sub-micromolar.
Molecule `COc1cc(C(=O)NS(C)(=O)=O)ccc1-c1cnc(Oc2cc(Cl)cc(C(F)(F)F)c2)c(Cl)c1` [Example 374, 4-(5-chloro-6-(3-chloro-5-(trifluoromethyl)phenoxy)-3-pyridinyl)-3-methoxy-N-(methylsulfonyl)benzamide] displayed an IC50 of 58.4 nM.
`Cc1cc(C(=O)NS(C)(=O)=O)c(F)cc1-c1cnc(Oc2ccc(F)cc2C(F)(F)F)c(Cl)c1` [Example 678, 4-(5-chloro-6-(4-fluoro-2-(trifluoromethyl)phenoxy)-3-pyridinyl)-2-fluoro-5-methyl-N-(methylsulfonyl)benzamide]: the IC50 is 74.4 nM. This IC50 and that of the molecule before are within 1.5-fold of each other.
On the same count and under the same terms, to `CS(=O)(=O)NC(=O)c1cc(F)c(-c2cnc(Oc3ccc(Cl)c(Cl)c3)c(Cl)c2)cc1F` [Example 570, 4-(5-chloro-6-(3,4-dichlorophenoxy)-3-pyridinyl)-2,5-difluoro-N-(methylsulfonyl)benzamide] belongs 61.2 nM; to `CC[C@@H](Oc1ncc(-c2cc(F)c(C(=O)NS(C)(=O)=O)cc2C)cc1Cl)c1ccc(F)cc1` [Example 639, 4-(5-chloro-6-(((1R)-1-(4-fluorophenyl)propyl)oxy)-3-pyridinyl)-2-fluoro-5-methyl-N-(methylsulfonyl)benzamide, 4-(5-chloro-6-(((1S)-1-(4-fluorophenyl)propyl)oxy)-3-pyridinyl)-2-fluoro-5-methyl-N-(methylsulfonyl)benzamide], 70.4 nM.
Molecule `CCC(CC)Nc1ncc(-c2cc(F)c(C(=O)NS(C)(=O)=O)cc2OC)cc1Cl` [Example 725, 4-(5-chloro-6-((1-ethylpropyl)amino)-3-pyridinyl)-2-fluoro-5-methoxy-N-(methylsulfonyl)benzamide] came in with an IC50 (in-vitro Nav 1.7 PX data) of 96.5 nM.
Still for that read-out and setting: the same measure for `COc1cc(C(=O)NS(C)(=O)=O)c(F)cc1-c1cnc(Oc2cc(Cl)c(Cl)cc2Cl)c(Cl)c1` [Example 739, 4-(5-chloro-6-(2,4,5-trichlorophenoxy)-3-pyridinyl)-2-fluoro-5-methoxy-N-(methylsulfonyl)benzamide]: 51 nM.
Turning to `Cc1cc(Cl)cc(Cl)c1Oc1ncc(-c2ccc(C(=O)NS(C)(=O)=O)cc2OC2COC2)cc1Cl` [Example 584, 4-(5-chloro-6-(2,4-dichloro-6-methylphenoxy)-3-pyridinyl)-N-(methylsulfonyl)-3-(3-oxetanyloxy)benzamide], it took 59 nM to reach half-maximal inhibition (IC50).
Molecule `Cc1cc(C(=O)NS(C)(=O)=O)c(F)cc1-c1cnc(O[C@@H]2CCCC(C)(C)C2)c(Cl)c1` [Example 687, 4-(5-chloro-6-(((1R)-3,3-dimethylcyclohexyl)oxy)-3-pyridinyl)-2-fluoro-5-methyl-N-(methylsulfonyl)benzamide, 4-(5-chloro-6-(((1S)-3,3-dimethylcyclohexyl)oxy)-3-pyridinyl)-2-fluoro-5-methyl-N-(methylsulfonyl)benzamide] displayed an IC50 of 75.9 nM.
`COc1cc(C(=O)NS(C)(=O)=O)c(F)cc1-c1cnc(O[C@@H](C)C2CCC2)c(Cl)c1` (single isomer, unassigned) [Example 767] returned an IC50 (in-vitro Nav 1.7 PX data) of 77.6 nM.
Same read-out and setting: to `CCOc1cc(C(=O)NS(C)(=O)=O)c(F)cc1-c1cnc(Oc2cccc(Cl)c2C)c(Cl)c1` [Example 779, 4-(5-chloro-6-(3-chloro-2-methylphenoxy)-3-pyridinyl)-5-ethoxy-2-fluoro-N-(methylsulfonyl)benzamide] belongs 94.7 nM; to `COc1cc(C(=O)NS(C)(=O)=O)c(F)cc1-c1cnc(OC2(C(F)(F)F)CCC2)c(Cl)c1` [Example 734, 4-(5-chloro-6-((1-(trifluoromethyl)cyclobutyl)oxy)-3-pyridinyl)-2-fluoro-5-methoxy-N-(methylsulfonyl)benzamide], 58.7 nM; to `COc1cc(C(=O)NS(C)(=O)=O)c(F)cc1-c1cnc(O[C@@H](C)CC(C)C)c(Cl)c1` [Example 726, 4-(5-chloro-6-(((1S)-1,3-dimethylbutyl)oxy)-3-pyridinyl)-2-fluoro-5-methoxy-N-(methylsulfonyl)benzamide], 80.5 nM.
Still for that read-out and setting: to `COc1cc(C(=O)NS(C)(=O)=O)c(F)cc1-c1cnc(O[C@@H]2CC[C@@H]2C)c(Cl)c1` [Example 770, 4-(5-chloro-6-(((1R,2S)-2-methylcyclobutyl)oxy)-3-pyridinyl)-2-fluoro-5-methoxy-N-(methylsulfonyl)benzamide] belongs 110 nM; to `COc1cc(C(=O)NS(C)(=O)=O)c(F)cc1-c1cnc(NCCC2CCCC2)c(Cl)c1` [Example 731, 4-(5-chloro-6-((2-cyclopentylethyl)amino)-3-pyridinyl)-2-fluoro-5-methoxy-N-(methylsulfonyl)benzamide], 106 nM.
Still for that read-out and setting: the same measure for `COc1cc(C(=O)NS(C)(=O)=O)c(F)cc1-c1cnc(Oc2ccc(Cl)cc2F)c(Cl)c1` [Example 753, 4-(5-chloro-6-(4-chloro-2-fluorophenoxy)-3-pyridinyl)-2-fluoro-5-methoxy-N-(methylsulfonyl)benzamide]: 36.9 nM; for `COc1cc(C(=O)NS(C)(=O)=O)c(F)cc1-c1cnc(OCC2C(C)(C)C2(C)C)c(Cl)c1` [Example 718, 4-(5-chloro-6-((2,2,3,3-tetramethylcyclopropyl)methoxy)-3-pyridinyl)-2-fluoro-5-methoxy-N-(methylsulfonyl)benzamide]: 145 nM; for “4-(3-Chloro-4′-Methoxy-2′-Methyl-[2,3′-Bipyridin]-5-yl)-2-Fluoro-5-Methyl-N-(Methyl Sulfonyl)Benzamide [Example 840]”: 8350 nM.
In turn, `COc1cc(C(=O)NS(C)(=O)=O)c(F)cc1-c1cnc(Oc2cc(C)ccc2Cl)c(Cl)c1` [Example 752, 4-(5-chloro-6-(2-chloro-5-methylphenoxy)-3-pyridinyl)-2-fluoro-5-methoxy-N-(methylsulfonyl)benzamide] came in with an IC50 (in-vitro Nav 1.7 PX data) of 42.1 nM.
As for `COc1cc(C(=O)NS(C)(=O)=O)ccc1-c1cnc(Oc2cc(Cl)cc(OC(F)(F)F)c2)c(Cl)c1` [Example 372, 4-(5-chloro-6-(3-chloro-5-(trifluoromethoxy)phenoxy)-3-pyridinyl)-3-methoxy-N-(methylsulfonyl)benzamide], the IC50 was determined as 50.4 nM.
Same read-out and setting: the same measure for `Cc1cc(Oc2ncc(-c3ccc(C(=O)NS(C)(=O)=O)cc3OC(F)F)cc2Cl)ccc1Cl` [Example 453, 4-(5-chloro-6-(4-chloro-3-methylphenoxy)-3-pyridinyl)-3-(difluoromethoxy)-N-(methylsulfonyl)benzamide]: 60.3 nM; for `CS(=O)(=O)NC(=O)c1ccc(-c2cnc(Oc3cc(Cl)cc(Cl)c3)c(Cl)c2)c(OC2COC2)c1` [Example 422, 4-(5-chloro-6-(3,5-dichlorophenoxy)-3-pyridinyl)-N-(methylsulfonyl)-3-(3-oxetanyloxy)benzamide]: 31.3 nM.
The molecule `Cc1cc(C(=O)NS(C)(=O)=O)c(F)cc1-c1cnc(Oc2ccc(Cl)cc2C(F)(F)F)c(Cl)c1` [Example 679, 4-(5-chloro-6-(4-chloro-2-(trifluoromethyl)phenoxy)-3-pyridinyl)-2-fluoro-5-methyl-N-(methylsulfonyl)benzamide] showed an IC50 of 87.5 nM.
